Source: US8557839B2, “Fused ring azadecalin glucocorticoid receptor modulators” (Corcept Therapeutics, Inc., priority 2004, dated 2013)

Legend:
glucocorticoid receptors [1] = target: T1, glucocorticoid receptors (Homo sapiens, UniProt P04150); test: GR functional assay using SW1353/MMTV-5 cells (dexamethasone-induced luciferase); type: cell-based; parameters: contains endogenous glucocorticoid receptors; endogenous in cells; host or cells: SW1353/MMTV-5 (human chondrosarcoma, stably carrying the pMAMneo-Luc reporter)
T1 sequence (P04150 1-777): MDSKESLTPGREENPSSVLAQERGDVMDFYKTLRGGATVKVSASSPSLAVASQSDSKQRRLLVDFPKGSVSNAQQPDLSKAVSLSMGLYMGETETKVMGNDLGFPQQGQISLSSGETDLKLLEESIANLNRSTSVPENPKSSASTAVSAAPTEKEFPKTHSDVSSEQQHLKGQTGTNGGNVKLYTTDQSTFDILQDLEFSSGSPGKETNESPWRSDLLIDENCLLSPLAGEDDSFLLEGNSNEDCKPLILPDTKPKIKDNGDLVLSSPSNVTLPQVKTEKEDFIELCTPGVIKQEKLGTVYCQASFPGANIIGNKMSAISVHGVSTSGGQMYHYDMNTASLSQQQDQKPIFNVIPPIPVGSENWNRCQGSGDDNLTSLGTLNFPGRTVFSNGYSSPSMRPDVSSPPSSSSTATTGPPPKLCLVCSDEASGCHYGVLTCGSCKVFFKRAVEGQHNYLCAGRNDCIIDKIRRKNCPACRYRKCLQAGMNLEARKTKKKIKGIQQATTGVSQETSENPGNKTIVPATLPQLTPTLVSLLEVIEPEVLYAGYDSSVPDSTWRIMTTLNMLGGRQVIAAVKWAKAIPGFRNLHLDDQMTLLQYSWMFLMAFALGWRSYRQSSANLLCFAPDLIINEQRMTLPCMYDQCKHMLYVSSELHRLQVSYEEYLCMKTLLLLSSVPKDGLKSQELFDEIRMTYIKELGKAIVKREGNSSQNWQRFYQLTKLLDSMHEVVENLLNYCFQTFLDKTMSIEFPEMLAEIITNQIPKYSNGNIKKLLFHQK
Experimental: SW1353/MMTV-5 is an adherent human chondrosarcoma cell line that contains endogenous glucocorticoid receptors. It was transfected with a plasmid (pMAMneo-Luc) encoding firefly luciferase located behind a glucocorticoid-responsive element (GRE) derived from a viral promoter (long terminal repeat of mouse mammary tumor virus). A stable cell line SW1353/MMTV-5 was selected with geneticin, which was required to maintain this plasmid.
SW1353/MMTV-5 cells were distributed in 96-well plates and incubated in medium (without geneticin) for 24 hrs (in the absence of CO2).

glucocorticoid receptors [2] = target: T1, glucocorticoid receptors; test: Glucocorticoid receptor binding displacement assay with 3H-dexamethasone; parameters: This GR was a full-length steroid hormone receptor; host or cells: recombinant baculovirus-infected insect cells
Experimental: The source of the receptor was recombinant baculovirus-infected insect cells. This GR was a full-length steroid hormone receptor likely to be associated with heat-shock and other endogenous proteins.
For the Primary Screen, test compounds were tested at 1 μM in duplicate. These compounds were diluted from 10 mM stock in 100% DMSO. After dilution to 100 μM, 5 μl were added to 245 μl assay buffer to obtained 2 μM compound and 2% DMSO.
For the IC50 determinations, test compounds were tested at 6 concentrations in duplicate (concentration range depends on % inhibition binding that was obtained in the Primary Screen). Test compounds were diluted from 10 mM stock in 100% DMSO. The tested solutions were prepared at 2× final assay concentration in 2% DMSO/assay buffer.
All reagents and the assay plate were kept on ice during the addition of reagents. […] After the additions, the incubation mixture was mixed and incubated for 2.5 hrs at 4° C.
After 2.5 hrs incubation, unbound counts were removed with dextran coated charcoal (DCC) as follows: 25 μl of DCC solution (10% DCC in assay buffer) was added to all wells and mixed (total volume 225 μl). The plate was centrifuged at 4000 rpm for 10 minutes at 4° C. 75 μl of the supernatants (i.e.⅓ of total volume) was carefully pipetted into an optiplate. 200 μl of scintillation cocktail were added (Microscint-40, Packard Bioscience. B.V.). The plate was vigorously shaken for approx. 10 minutes and counted on Topcount.
The IC50 values were converted to Ki (the inhibition constant) using the Cheng-Prusoff equation.
Reagents: Assay buffer: 10 mM potassium phosphate buffer pH 7.6 containing 5 mM DTT, 10 mM sodium molybdate, 100 μM EDTA and 0.1% BSA.

[3] = Ki from IC50 by Cheng-Prusoff, 2.5 nM 3H-dexamethasone, read-out: GR Binding
[4] = SW1353/MMTV-5 cells, antagonism of 50 nM dexamethasone, luciferase, read-out: GR Functional

Structure (SMILES) | Ki (glucocorticoid receptors [1]; read-out: GR Functional) [nM] | Ki (glucocorticoid receptors [2]; [3]) [nM] | Ki (glucocorticoid receptors [1]) [nM] | Ki (glucocorticoid receptors [2]) [nM] | Ki (glucocorticoid receptors [1]; [4]) [nM]
COc1ccc(-n2ncc3c2C=C2CCN(S(=O)(=O)c4ccc(C(C)(C)C)cc4)C[C@@]2(Cc2ccccc2)C3)cc1 | 10 to 100 | < 10 | – | – | –
CC(C)(C)c1ccc(S(=O)(=O)N2CCC3=Cc4c(cnn4-c4ccc(F)cc4)C[C@]3(C(=O)c3ccccc3)C2)cc1 | < 10 | < 10 | – | – | –
O=S(=O)(c1ccccc1F)N1CCC2=Cc3c(cnn3-c3ccc(F)cc3)C[C@]2(CN2CCOCC2)C1 | 10 to 100 | < 10 | – | – | –
CC(C)(C)c1ccc(S(=O)(=O)N2CCC3=Cc4c(cnn4-c4ccc(F)cc4)C[C@]3(C(=O)NCc3ccccc3)C2)cc1 | > 100 | 10 to 100 | – | – | –
CC(C)(C)c1ccc(S(=O)(=O)N2CCC3=Cc4[nH]ncc4CC3(Cc3ccccc3)C2)cc1 (centres unmarked) [drawing 245] | 10 to 100 | < 10 | – | – | –
COC(=O)C[C@]12Cc3cnn(-c4ccc(F)cc4)c3C=C1CCN(S(=O)(=O)c1ccc(C(C)(C)C)cc1)C2 | 10 to 100 | < 10 | – | – | –
CN(C)C[C@]12Cc3cnn(-c4ccc(F)cc4)c3C=C1CCN(S(=O)(=O)c1ccccc1)C2 | 10 to 100 | < 10 | – | – | –
O=S(=O)(c1ccccc1)N1CCC2=Cc3c(cnn3-c3ccc(F)cc3)C[C@]2(CN2CCCCC2)C1 | – | – | 10 to 100 | < 10 | –
CC(C)S(=O)(=O)N1CCC2=Cc3c(cnn3-c3ccc(F)cc3)CC2(Cc2ccccc2)C1 (centres unmarked) | > 100 | > 100 | – | – | –
CCCCn1ncc2c1C=C1CCN(S(=O)(=O)c3ccc(C(C)(C)C)cc3)C[C@@]1(COCCOC)C2 | 10 to 100 | < 10 | – | – | –
COC[C@]12Cc3cnn(-c4ccc(F)cc4)c3C[C@@H]1CCN(S(=O)(=O)c1ccccc1)C2 | > 100 | 10 to 100 | – | – | –
CCOC[C@]12Cc3cnn(-c4ccc(F)cc4)c3C=C1CCN(S(=O)(=O)c1ccc(C(C)(C)C)cc1)C2 | < 10 | < 10 | – | – | –
COCCOC[C@]12Cc3cnn(C(C)C)c3C=C1CCN(S(=O)(=O)c1ccc(C(C)(C)C)cc1)C2 | 10 to 100 | < 10 | – | – | –
O=S(=O)(c1ccc(N2CCOCC2)cc1)N1CCC2=Cc3[nH]ncc3CC2(Cc2ccccc2)C1 (centres unmarked) [drawing 246] | > 100 | < 10 | – | – | –
COCCOC[C@]12Cc3cnn(C)c3C=C1CCN(S(=O)(=O)c1ccc(C(C)(C)C)cc1)C2 | > 100 | 10 to 100 | – | – | –
CC(C)(C)c1ccc(S(=O)(=O)N2CC[C@H]3Cc4c(cnn4-c4ccc(F)cc4)C[C@]3(CN3CCOCC3)C2)cc1 | 10 to 100 | < 10 | – | – | –
CN(C)CC[C@]12Cc3cnn(-c4ccc(F)cc4)c3C=C1CCN(S(=O)(=O)c1ccc(C(C)(C)C)cc1)C2 | 10 to 100 | 10 to 100 | – | – | –
CCCCn1ncc2c1C=C1CCN(S(=O)(=O)c3ccc(C)cc3)C[C@@]1(C(=O)OC)C2 | > 100 | > 100 | – | – | –
Fc1ccc(-n2ncc3c2C=C2CCN(Cc4ccccc4)CC2(Cc2ccccc2)C3)cc1 (centres unmarked) [drawing 258] | – | 10 to 100 | – | – | > 100
Cn1cc2c(n1)C=C1CCN(S(=O)(=O)c3ccc(C(C)(C)C)cc3)CC1(Cc1ccccc1)C2 (centres unmarked) [drawing 232] | > 100 | < 10 | – | – | –

Structure (SMILES) | Ki (glucocorticoid receptors [1]; read-out: GR Functional) [nM] | Ki (glucocorticoid receptors [2]; [3]) [nM] | Ki (glucocorticoid receptors [1]) [nM] | Ki (glucocorticoid receptors [2]) [nM] | Ki (glucocorticoid receptors [1]; [4]) [nM]
COCCOC[C@]12Cc3cnn(-c4ccc(F)cc4)c3C=C1CCN(S(=O)(=O)c1ccc(C(C)(C)C)cc1)C2 | < 10 | < 10 | – | – | –
O=S(=O)(N1CCCCC1)N1CCC2=Cc3c(cnn3-c3ccc(F)cc3)CC2(Cc2ccc(F)cc2)C1 (centres unmarked) | > 100 | 10 to 100 | – | – | –
CC(C)(C)c1ccc(S(=O)(=O)N2CCC3=Cc4c(cnn4-c4ccc(F)cc4)CC3(Cc3ccccc3)C2)cc1 (centres unmarked) [drawing 249] | – | < 10 | – | – | 10 to 100
O=S(=O)(c1ccccc1)N1CCC2=Cc3c(cnn3-c3ccc(F)cc3)CC2(Cc2ccc(F)cc2)C1 (centres unmarked) | 10 to 100 | < 10 | – | – | –
CC(C)(C)c1ccc(S(=O)(=O)N2CCC3=Cc4c(cnn4-c4ccc(F)cc4)C[C@]3(CN3CCC3)C2)cc1 | – | – | 10 to 100 | < 10 | –
CCCCS(=O)(=O)N1CCC2=Cc3c(cnn3-c3ccc(F)cc3)C[C@]2(COCCOC)C1 | 10 to 100 | < 10 | – | – | –
CC(C)(C)c1ccc(S(=O)(=O)N2CCC3=Cc4c(cnn4-c4ccc(F)cc4)C[C@]3(C(=O)N3CCCC3)C2)cc1 | 10 to 100 | < 10 | – | – | –
CN1CCN(S(=O)(=O)N2CCC3=Cc4c(cnn4-c4ccc(F)cc4)CC3(Cc3ccc(F)cc3)C2)CC1 (centres unmarked) | > 100 | 10 to 100 | – | – | –
CCCCn1ncc2c1C=C1CCN(S(=O)(=O)c3ccc(C(C)(C)C)cc3)C[C@@]1(CN1CCCCC1)C2 | 10 to 100 | < 10 | – | – | –
O=S(=O)(c1ccc(N2CCOCC2)cc1)N1CCC2=Cc3[nH]ncc3CC2(Cc2ccccc2)C1 (centres unmarked) [drawing 230] | – | < 10 | – | – | > 100
CCC(O)[C@]12Cc3cnn(-c4ccc(F)cc4)c3C=C1CCN(S(=O)(=O)c1ccc(C(C)(C)C)cc1)C2 (some centres unmarked) | 10 to 100 | < 10 | – | – | –
COC[C@]12Cc3cnn(C(C)C)c3C=C1CCN(S(=O)(=O)c1ccc(C(C)(C)C)cc1)C2 | > 100 | 10 to 100 | – | – | –
COC[C@]12Cc3cnn(-c4ccc(F)cc4)c3C=C1CCN(S(=O)(=O)c1ccc(C)cc1)C2 | < 10 | < 10 | – | – | –
COC[C@]12Cc3cnn(-c4ccc(F)cc4)c3C=C1CCN(S(=O)(=O)c1ccc(F)cc1)C2 | 10 to 100 | < 10 | – | – | –
O=C(Nc1ccccc1)N1CCC2=Cc3c(cnn3-c3ccc(F)cc3)CC2(Cc2ccc(F)cc2)C1 (centres unmarked) | 10 to 100 | < 10 | – | – | –
Fc1ccc(-n2ncc3c2C=C2CCN(Cc4c[nH]cn4)CC2(Cc2ccccc2)C3)cc1 (centres unmarked) | > 100 | > 100 | – | – | –
Fc1ccc(-n2ncc3c2C=C2CCN(Cc4ccncc4)CC2(Cc2ccccc2)C3)cc1 (centres unmarked) | > 100 | 10 to 100 | – | – | –
CC(C)(C)c1ccc(S(=O)(=O)N2CCC3=Cc4c(cnn4-c4ccc(F)cc4)C[C@]3(C(=O)N3CCCCC3)C2)cc1 | > 100 | < 10 | – | – | –
CC(C)(C)c1ccc(S(=O)(=O)N2CC[C@H]3Cc4c(cnn4-c4ccc(F)cc4)C[C@]3(CO)C2)cc1 | > 100 | > 100 | – | – | –
C[C@]12Cc3cnn(-c4ccc(F)cc4)c3C=C1CCN(S(=O)(=O)c1ccc(N)cc1)C2 | > 100 | 10 to 100 | – | – | –
